Experimental data from PubChem BioAssay AID1963978 (Molecular Pharmacology Branch, DTP, NCI, 2024).

Test system: 616215-338-R-J1-PDC spheroids with HUVEC/MSC, viability
Test: Anticancer human tumor 616215-338-R-J1-PDC patient-derived colon adenocarcinoma cell line growth inhibition [PI3K]
Conditions: for viability, T/C: stronger effect = lower value; active = viability on the fitted dose curve at most 10% of control; inactive = the rest
Summary of the method: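 Agents were dosed from a top concentration near clinical Cmax (otherwise 10 microM) in half-log decrements, alone or combined with PI3K inhibitors. The spheroids contain tumor cells plus endothelial (HUVEC) and MSC stroma; viability is measured.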

[1] = curve of first compound, second compound 0.0316 µM
[2] = curve of first compound, second compound 0.1 µM
[3] = curve of first compound, second compound 0.316 µM
[4] = curve of first compound, second compound 1 µM
[5] = curve of first compound, second compound 3.16 µM
[6] = curve of first compound, second compound 10 µM
[7] = second compound 0.0316 µM, first compound 0.000316 µM
[8] = second compound 0.0316 µM, first compound 0.001 µM
[9] = second compound 0.0316 µM, first compound 0.00316 µM
[10] = second compound 0.0316 µM, first compound 0.01 µM
[11] = second compound 0.0316 µM, first compound 0.0316 µM
[12] = second compound 0.0316 µM, first compound 0.1 µM
[13] = second compound 0.1 µM, first compound 0.000316 µM
[14] = second compound 0.1 µM, first compound 0.001 µM
[15] = second compound 0.1 µM, first compound 0.00316 µM
[16] = second compound 0.1 µM, first compound 0.01 µM
[17] = second compound 0.1 µM, first compound 0.0316 µM
[18] = second compound 0.1 µM, first compound 0.1 µM
[19] = second compound 0.316 µM, first compound 0.000316 µM
[20] = second compound 0.316 µM, first compound 0.001 µM
[21] = second compound 0.316 µM, first compound 0.00316 µM
[22] = second compound 0.316 µM, first compound 0.01 µM
[23] = second compound 0.316 µM, first compound 0.0316 µM
[24] = second compound 0.316 µM, first compound 0.1 µM
[25] = second compound 1 µM, first compound 0.000316 µM
[26] = second compound 1 µM, first compound 0.001 µM
[27] = second compound 1 µM, first compound 0.00316 µM
[28] = second compound 1 µM, first compound 0.01 µM
[29] = second compound 1 µM, first compound 0.0316 µM
[30] = second compound 1 µM, first compound 0.1 µM
[31] = second compound 3.16 µM, first compound 0.000316 µM
[32] = second compound 3.16 µM, first compound 0.001 µM
[33] = second compound 3.16 µM, first compound 0.00316 µM
[34] = second compound 3.16 µM, first compound 0.01 µM
[35] = second compound 3.16 µM, first compound 0.0316 µM
[36] = second compound 3.16 µM, first compound 0.1 µM
[37] = second compound 10 µM, first compound 0.000316 µM
[38] = second compound 10 µM, first compound 0.001 µM
[39] = second compound 10 µM, first compound 0.00316 µM
[40] = second compound 10 µM, first compound 0.01 µM
[41] = second compound 10 µM, first compound 0.0316 µM
[42] = second compound 10 µM, first compound 0.1 µM
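Also: spheroids exposed to agents for seven days before the viability read.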

CC(=O)c1c(C)c2cnc(Nc3ccc(N4CCNCC4)cn3)nc2n(C2CCCC2)c1=O + Cc1nc(NC(=O)N2CCCC2C(N)=O)sc1-c1ccnc(C(C)(C)C(F)(F)F)c1
inactive: viability, T/C [7] 97.4% | viability, T/C [8] 96.8% | viability, T/C [9] 102% | viability, T/C [10] 110% | viability, T/C [11] 98% | viability, T/C [12] 113% | viability, T/C [13] 102% | viability, T/C [14] 95.7% | viability, T/C [15] 105% | viability, T/C [16] 87.9% | viability, T/C [17] 104% | viability, T/C [18] 111% | viability, T/C [19] 109% | viability, T/C [20] 97.3% | viability, T/C [21] 88.1% | viability, T/C [22] 99.9% | viability, T/C [23] 104% | viability, T/C [24] 108% | viability, T/C [25] 111% | viability, T/C [26] 108% | viability, T/C [27] 97.2% | viability, T/C [28] 100% | viability, T/C [29] 103% | viability, T/C [30] 91.7% | viability, T/C [31] 91.8% | viability, T/C [32] 95.6% | viability, T/C [33] 90.5% | viability, T/C [34] 98.4% | viability, T/C [35] 105% | viability, T/C [36] 101% | viability, T/C [37] 97.5% | viability, T/C [38] 93% | viability, T/C [39] 90.5% | viability, T/C [40] 93% | viability, T/C [41] 91% | viability, T/C [42] 97%
> 0.1 µM: IC50 [1] | IC50 [2] | IC50 [3] | IC50 [4] | IC50 [5] | IC50 [6]

C#Cc1c(F)ccc2cc(O)cc(-c3ncc4c(N5CC6CCC(C5)N6)nc(OCC56CCCN5CC(F)C6)nc4c3F)c12 (stereo not drawn)
> 10 µM: IC50 (curve of compound)
inactive: viability, T/C (compound 0.0316 µM) 97.3% [middle of 4 runs] | viability, T/C (compound 0.1 µM) 96.7% [middle of 4 runs] | viability, T/C (compound 0.316 µM) 105% [middle of 4 runs] | viability, T/C (compound 1 µM) 96.1% [middle of 4 runs] | viability, T/C (compound 3.16 µM) 95% [middle of 4 runs] | viability, T/C (compound 10 µM) 83% [middle of 4 runs]

Cn1ncnc1[C@H]1c2n[nH]c(=O)c3cc(F)cc(c23)N[C@@H]1c1ccc(F)cc1 + Cc1nc(NC(=O)N2CCCC2C(N)=O)sc1-c1ccnc(C(C)(C)C(F)(F)F)c1
> 0.1 µM: IC50 [1] | IC50 [2] | IC50 [3] | IC50 [4] | IC50 [5] | IC50 [6]
inactive: viability, T/C [7] 95.2% | viability, T/C [8] 88.9% | viability, T/C [9] 112% | viability, T/C [10] 89.3% | viability, T/C [11] 109% | viability, T/C [12] 99.1% | viability, T/C [13] 101% | viability, T/C [14] 98.7% | viability, T/C [15] 97.8% | viability, T/C [16] 97.2% | viability, T/C [17] 104% | viability, T/C [18] 109% | viability, T/C [19] 92% | viability, T/C [20] 103% | viability, T/C [21] 89.6% | viability, T/C [22] 104% | viability, T/C [23] 99.9% | viability, T/C [24] 90% | viability, T/C [25] 107% | viability, T/C [26] 103% | viability, T/C [27] 94.5% | viability, T/C [28] 93.4% | viability, T/C [29] 90.2% | viability, T/C [30] 93.5% | viability, T/C [31] 103% | viability, T/C [32] 94.6% | viability, T/C [33] 98.5% | viability, T/C [34] 93% | viability, T/C [35] 92.5% | viability, T/C [36] 87.7% | viability, T/C [37] 107% | viability, T/C [38] 91.3% | viability, T/C [39] 85.7% | viability, T/C [40] 81.3% | viability, T/C [41] 81.4% | viability, T/C [42] 80.4%

Cc1nc(NC(=O)N2CCCC2C(N)=O)sc1-c1ccnc(C(C)(C)C(F)(F)F)c1 (stereo not drawn)
inactive: viability, T/C (compound 0.0316 µM) 97.3% [middle of 8 runs] | viability, T/C (compound 0.1 µM) 102% [middle of 8 runs] | viability, T/C (compound 0.316 µM) 106% [middle of 8 runs] | viability, T/C (compound 1 µM) 108% [middle of 8 runs] | viability, T/C (compound 3.16 µM) 100% [middle of 8 runs] | viability, T/C (compound 10 µM) 99.5% [middle of 8 runs]
> 10 µM: IC50 (compound alone, run of 05/08/2023)
